Counter-ions that a name gives are not always drawn.

In the first test the test system is SARS-CoV-2. Briefly: microbe, parasite or virus in culture. Conditions: Severe acute respiratory syndrome coronavirus 2, Vero C1008, 48 h.
As to `CCCN1C[C@H](CSC)C[C@@H]2c3cccc4[nH]cc(c34)C[C@H]21` [PERGOLIDE MESYLATE], the IC50 was greater than 20 µM.

Regarding `C[C@H](O)C(=O)O` [L-LACTIC ACID], the IC50 was greater than 20 µM.

On to `CC(=O)N[C@H]1C[C@H]2CC[C@@H](C1)N2Cc1ccc(Oc2nc3ncccc3s2)cc1`, for which the IC50 is greater than 20 µM.

On to `CC(=O)OCC(=O)[C@@]12OC(C)(C)O[C@@H]1C[C@H]1[C@@H]3C[C@H](F)C4=CC(=O)C=C[C@]4(C)[C@@]3(F)[C@@H](O)C[C@@]12C` [FLUOCINONIDE], for which the IC50 was greater than 20 µM.

In turn, `Cc1cccc(N2CC(CO)OC2=O)c1` (stereo not given) [TOLOXATONE] had an IC50 greater than 20 µM.

`COc1ccc2nc3cc(Cl)ccc3c(Nc3cc(CN4CCCC4)c(O)c(CN4CCCC4)c3)c2n1` [PYRONARIDINE]: the IC50 was greater than 20 µM.

`NC(=O)c1ncn([C@@H]2O[C@H](CO)[C@@H](O)[C@H]2O)n1` [RIBAVIRIN] returned an IC50 greater than 50.1 µM.

Turning to `COc1ccc(CCN(C)CCCC(C#N)(c2ccc(OC)c(OC)c2)C(C)C)cc1OC` (stereo not given), the IC50 is greater than 20 µM.

`Nc1ccc(S(N)(=O)=O)cc1` [SULFANILAMIDE] had an IC50 greater than 20 µM.

Regarding `CCN1/C(=C/C=C/C=C/c2sc3ccccc3[n+]2CC)Sc2ccccc21` [DITHIAZANINE IODIDE], the IC50 was greater than 20 µM.

As for `O=C(O)c1nn(-c2ccc(S(=O)(=O)O)cc2)c(O)c1/N=N/c1ccc(S(=O)(=O)O)cc1`, the IC50 was greater than 20 µM.

Compound `CCCc1c2nc(C(=O)O)cc(NC)c2cc2c(=O)cc(C(=O)O)oc12` [MINOCROMIL] had an IC50 greater than 20 µM.

On to `Nc1ncc2ncn(CC3(OCP(=O)(O)O)CC3)c2n1` [BESIFOVIR], for which the IC50 is greater than 20 µM.

In the case of `CC(=O)C[C@@H](c1ccccc1)c1c(O)c2ccccc2oc1=O`, the IC50 was greater than 20 µM.

As for `COc1ccc([C@@H]2Sc3ccccc3N(CCN(C)C)C(=O)[C@@H]2OC(C)=O)cc1` [DILTIAZEM], the IC50 was greater than 20 µM.

Regarding `O=C(O)CNC(=O)C(CS)Cc1ccccc1` (stereo not given) [THIORPHAN], the IC50 was greater than 20 µM.

`O=S(=O)(O)c1ccc2ccccc2c1` displayed an IC50 greater than 20 µM.

For `CCC1NC(=O)c2cc(S(N)(=O)=O)c(Cl)cc2N1` (stereo not given) [QUINETHAZONE], the IC50 was greater than 20 µM.

For `CC(=O)[C@H]1CC[C@H]2[C@@H]3C=CC4=CC(=O)CC[C@@]4(C)[C@@H]3CC[C@]12C` [DYDROGESTERONE], the IC50 was greater than 20 µM.

In turn, `O=C(NC1CCCCC1)NS(=O)(=O)c1ccc2c(c1)CCC2` [GLYHEXAMIDE] came in with an IC50 greater than 20 µM.

The compound `C=CC(=O)N1CCC([C@@H]2CCNc3c(C(N)=O)c(-c4ccc(Oc5ccccc5)cc4)nn32)CC1` [ZANUBRUTINIB] registered an IC50 greater than 20 µM.

As for `COc1ccc(C(Cl)=C(c2ccc(OC)cc2)c2ccc(OC)cc2)cc1` [CHLOROTRIANISENE], the IC50 is greater than 20 µM.

Compound `C[C@@H](CN1CC(=O)NC(=O)C1)N1CC(=O)NC(=O)C1` [DEXRAZOXANE] returned an IC50 greater than 20 µM.

Take `NC1=NCC(c2ccc(C(F)(F)F)cc2)O1` (stereo not given) [FLUMINOREX]: the IC50 was greater than 20 µM.

On to `O=C(O)c1ccc(N[C@H]2OC[C@H](O)[C@@H](O)[C@H]2O)cc1`, for which the IC50 is greater than 20 µM.

With `Cc1cnc(C(=O)N[C@H]2CCCCC/C=C\[C@@H]3C[C@@]3(C(=O)NS(=O)(=O)C3CC3)NC(=O)[C@@H]3C[C@@H](Oc4nc5ccccc5c5ccccc45)CN3C2=O)cn1`, the IC50 was greater than 20 µM.

Regarding `O=C(O)C(O)C(O)C(O)C(O)C(O)CO` (stereo not given), the IC50 is greater than 20 µM.

On to `C[C@@H]1CCN(C(=O)CC#N)C[C@@H]1N(C)c1ncnc2[nH]ccc12` [TOFACITINIB], for which the IC50 was greater than 20 µM.

`CCCCCCCCCC1(C)OCC(COC(N)=O)O1` (stereo not given) [DIOXAMATE] yielded an IC50 greater than 20 µM.

Take `OCC(O)CN1CCN(c2ccccc2)CC1` (stereo not given) [DROPROPIZINE]: the IC50 was greater than 20 µM.

The same test, now with this note: Severe acute respiratory syndrome coronavirus 2, Vero C1008, 48 h, read-out: pIC50 (converted).
For `CCCN1C[C@H](CSC)C[C@@H]2c3cccc4[nH]cc(c34)C[C@H]21` [PERGOLIDE MESYLATE], the IC50 was greater than 20 µM.

Take `C[C@H](O)C(=O)O` [L-LACTIC ACID]: the IC50 was greater than 20 µM.

With `CC(=O)N[C@H]1C[C@H]2CC[C@@H](C1)N2Cc1ccc(Oc2nc3ncccc3s2)cc1`, the IC50 is greater than 20 µM.

In the case of `CC(=O)OCC(=O)[C@@]12OC(C)(C)O[C@@H]1C[C@H]1[C@@H]3C[C@H](F)C4=CC(=O)C=C[C@]4(C)[C@@]3(F)[C@@H](O)C[C@@]12C` [FLUOCINONIDE], the IC50 is greater than 20 µM.

Turning to `Cc1cccc(N2CC(CO)OC2=O)c1` (stereo not given) [TOLOXATONE], the IC50 is greater than 20 µM.

For the compound `COc1ccc2nc3cc(Cl)ccc3c(Nc3cc(CN4CCCC4)c(O)c(CN4CCCC4)c3)c2n1` [PYRONARIDINE], the IC50 is greater than 20 µM.

For `NC(=O)c1ncn([C@@H]2O[C@H](CO)[C@@H](O)[C@H]2O)n1` [RIBAVIRIN], the IC50 is greater than 50.1 µM.

Take `COc1ccc(CCN(C)CCCC(C#N)(c2ccc(OC)c(OC)c2)C(C)C)cc1OC` (stereo not given): the IC50 is greater than 20 µM.

For `Nc1ccc(S(N)(=O)=O)cc1` [SULFANILAMIDE], the IC50 was greater than 20 µM.

Regarding `CCN1/C(=C/C=C/C=C/c2sc3ccccc3[n+]2CC)Sc2ccccc21` [DITHIAZANINE IODIDE], the IC50 was greater than 20 µM.

On to `O=C(O)c1nn(-c2ccc(S(=O)(=O)O)cc2)c(O)c1/N=N/c1ccc(S(=O)(=O)O)cc1`, for which the IC50 is greater than 20 µM.

With `CCCc1c2nc(C(=O)O)cc(NC)c2cc2c(=O)cc(C(=O)O)oc12` [MINOCROMIL], the IC50 was greater than 20 µM.

With `Nc1ncc2ncn(CC3(OCP(=O)(O)O)CC3)c2n1` [BESIFOVIR], the IC50 is greater than 20 µM.

`CC(=O)C[C@@H](c1ccccc1)c1c(O)c2ccccc2oc1=O`: the IC50 is greater than 20 µM.

For the compound `COc1ccc([C@@H]2Sc3ccccc3N(CCN(C)C)C(=O)[C@@H]2OC(C)=O)cc1` [DILTIAZEM], the IC50 was greater than 20 µM.

Consider `O=C(O)CNC(=O)C(CS)Cc1ccccc1` (stereo not given) [THIORPHAN], for which the IC50 was greater than 20 µM.

Consider `O=S(=O)(O)c1ccc2ccccc2c1`, for which the IC50 was greater than 20 µM.

Regarding `CCC1NC(=O)c2cc(S(N)(=O)=O)c(Cl)cc2N1` (stereo not given) [QUINETHAZONE], the IC50 was greater than 20 µM.

In the case of `CC(=O)[C@H]1CC[C@H]2[C@@H]3C=CC4=CC(=O)CC[C@@]4(C)[C@@H]3CC[C@]12C` [DYDROGESTERONE], the IC50 is greater than 20 µM.

On to `O=C(NC1CCCCC1)NS(=O)(=O)c1ccc2c(c1)CCC2` [GLYHEXAMIDE], for which the IC50 was greater than 20 µM.

As to `C=CC(=O)N1CCC([C@@H]2CCNc3c(C(N)=O)c(-c4ccc(Oc5ccccc5)cc4)nn32)CC1` [ZANUBRUTINIB], the IC50 is greater than 20 µM.

`COc1ccc(C(Cl)=C(c2ccc(OC)cc2)c2ccc(OC)cc2)cc1` [CHLOROTRIANISENE]: the IC50 is greater than 20 µM.

In the case of `C[C@@H](CN1CC(=O)NC(=O)C1)N1CC(=O)NC(=O)C1` [DEXRAZOXANE], the IC50 is greater than 20 µM.

On to `NC1=NCC(c2ccc(C(F)(F)F)cc2)O1` (stereo not given) [FLUMINOREX], for which the IC50 was greater than 20 µM.

As to `O=C(O)c1ccc(N[C@H]2OC[C@H](O)[C@@H](O)[C@H]2O)cc1`, the IC50 is greater than 20 µM.

`Cc1cnc(C(=O)N[C@H]2CCCCC/C=C\[C@@H]3C[C@@]3(C(=O)NS(=O)(=O)C3CC3)NC(=O)[C@@H]3C[C@@H](Oc4nc5ccccc5c5ccccc45)CN3C2=O)cn1`: the IC50 was greater than 20 µM.

With `O=C(O)C(O)C(O)C(O)C(O)C(O)CO` (stereo not given), the IC50 was greater than 20 µM.

For `C[C@@H]1CCN(C(=O)CC#N)C[C@@H]1N(C)c1ncnc2[nH]ccc12` [TOFACITINIB], the IC50 was greater than 20 µM.

On to `CCCCCCCCCC1(C)OCC(COC(N)=O)O1` (stereo not given) [DIOXAMATE], for which the IC50 is greater than 20 µM.

`OCC(O)CN1CCN(c2ccccc2)CC1` (stereo not given) [DROPROPIZINE]: the IC50 was greater than 20 µM.

The values are drawn from ChEMBL document CHEMBL4651402, “Screening of ~5500 FDA-approved drugs and clinical candidates for anti-SARS-CoV-2 activity” (2021).
